This note sets out measurements from EP0103552B1, “Novel derivatives of guanine” (priority 1982, dated 1984).

For one data set, the system named is herpes simplex type 1. Kind of data set: plaque reduction assay, inhibition of virus multiplication in cell cultures. The data set is classed as cell-based. Particulars: herpes simplex type 1 plaque on Vero cell mono-layers. As for the experimental part: The inhibition of herpesvirus by VIS 590 and VSA 687 has been measured as plaque reduction according to the following procedure. The plaque reduction assay for herpes simplex type 1 was performed on Vero (Green Monkey Kidney) cells as described by Ejercito et al., J. Gen. Virol. 2 (1968) 357. Monolayers on 5 cm petri dishes were used and after virus adsorption the compounds to be tested were added to-the medium.

The test system of another data set is Vero cells. Kind of data set: cellular toxicity, reduction in cell growth. The data set is classed as cell-based, Green Monkey. Particulars: at 100 µM. As for the experimental part:
(§1) The method used has been described by Stenberg (Biochemical Pharmacology, Vol. 30 (1980), 1005-1008). […] However, at this concentration, herpes virus multiplication was inhibited to more than 90% (see Table 1). Table 2. Cellular toxicity of VIS 590 expressed as percent reduction in cell growth after 48 h of incubation.

Data set [1] in a line: cellular toxicity, reduction in cell growth. The data set is classed as cell-based, Green Monkey. The note with it: monkey, vero cells; Conc. 100 µM; after 48 h of incubation; read-out: Percent reduction in growth of Vero cells, determined as cell number. As for the experimental part:
as §1

The molecule `Nc1nc2c(ncn2CC(=O)CCO)c(=O)[nH]1` [VIS 590, 9-(2-oxo-4-hydroxybutyl)guanine] came in with an Inhibition % with herpes simplex type 1 (Conc. 10 μ) of 35%. Further, the “effect on cell growth (in words)” value in the data set with Vero cells is listed as “did not affect cell growth”. The inhibition at 48 h, 100 µM in data set [1] worked out at 0%.

For `Nc1nc2c(ncn2CC(=O)C(O)CO)c(=O)[nH]1` (stereo not shown) [VSA 687, 9-(2-oxo-3,4-dihydroxybutyl)guanine], in the data set with herpes simplex type 1 (Conc. 35 μ), the Inhibition % is listed as >90%.
